Tested on: endogenous target monocytes in human PBMC
Test: PBMC ex vivo monocyte depletion flow cytometry assay (Example 200)
Format: cell-based
Conditions: with anti-cotinine antibody (SEQ ID NO: 11/12), 18-24 hours, EC50 in molar, read-out: Ex Vivo Depletion Assay pEC50 (converted)
Outline: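 Monocyte depletion is reported as pEC50, averaged or given individually across runs, and read by flow cytometry staining CD45, CD14 and CD4 with a viability dye. Compounds, diluted four-fold over 11 points from 1 mM DMSO stocks, were combined with 30 μg/mL Fc-enhanced anti-cotinine antibody and human PBMC, then incubated 18-24 h at 37° C.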

Compound	EC50 [nM]
CC(C)N(C)[C@@H]1CC[C@H](N2CC[C@H](Nc3ncnc4ccc(C(F)(F)F)cc34)C2=O)[C@H](NC(=O)CCNC(=O)CCCOC[C@H]2CC[C@@H](COCCNC(=O)[C@H]3CC(=O)N(C)[C@@H]3c3cccnc3)CC2)C1 [Example 62, (2S,3S)-N-(2-(((1S,4R)-4-((4-((3-(((1R,2S,5R)-5-(Isopropyl(methyl)amino)-2-((S)-2-oxo-3-((6-(trifluoromethyl)quinazolin-4-yl)amino)pyrrrolidin-1-yl)cyclohexyl)amino)-3-oxopropyl)amino)-4-oxobutoxy)methyl)cyclohexyl)methoxy)ethyl)-1-methyl-5-oxo-2-(pyridin-3-yl)pyrrolidine-3-carboxamide]	0.501
CC(C)N(C)[C@@H]1CC[C@H](N2CC[C@H](Nc3ncnc4ccc(C(F)(F)F)cc34)C2=O)[C@H](NC(=O)[C@H]2CC[C@@H](NC(=O)CCOCCOCCNC(=O)CCNC(=O)[C@H]3CC(=O)N(C)[C@@H]3c3cccnc3)CC2)C1 [Example 16, (2S,3S)-N-(3-((2-(2-(3-(((1S,4s)-4-(((1R,2S,5R)-5-(Isopropyl(methyl)amino)-2-((S)-2-oxo-3-((6-(trifluoromethyl)quinazolin-4-yl)amino)pyrrolidin-1-yl)cyclohexyl)carbamoyl)cyclohexyl)amino)-3-oxopropoxy)ethoxy)ethyl)amino)-3-oxopropyl)-1-methyl-5-oxo-2-(pyridin-3-yl)pyrrolidine-3-carboxamide]	0.316
CC(C)N(C)[C@@H]1CC[C@H](N2CC[C@H](Nc3ncnc4ccc(C(F)(F)F)cc34)C2=O)[C@H](NC(=O)[C@H]2CC[C@@H](NC(=O)CCOCCOCCNC(=O)CNC(=O)[C@H]3CC(=O)N(C)[C@@H]3c3cccnc3)CC2)C1 [Example 63, (2S,3S)-N-(2-((2-(2-(3-(((1S,4s)-4-(((1R,2S,5R)-5-(Isopropyl(methyl)amino)-2-((S)-2-oxo-3-((6-(trifluoromethyl)quinazolin-4-yl)amino)pyrrolidin-1-yl)cyclohexyl)carbamoyl)cyclohexyl)amino)-3-oxopropoxy)ethoxy)ethyl)amino)-2-oxoethyl)-1-methyl-5-oxo-2-(pyridin-3-yl)pyrrolidine-3-carboxamide]	0.631
CC(C)N(C)[C@@H]1CC[C@H](N2CC[C@H](Nc3ncnc4ccc(C(F)(F)F)cc34)C2=O)[C@H](NC(=O)[C@H]2C[C@@H](NC(=O)CCOCCOCCNC(=O)CCNC(=O)[C@H]3CC(=O)N(C)[C@@H]3c3cccnc3)C2)C1 [Example 49, (2S,3S)-N-(3-((2-(2-(3-(((1S,3s)-3-(((1R,2S,5R)-5-(Isopropyl(methyl)amino)-2-((S)-2-oxo-3-((6-(trifluoromethyl)quinazolin-4-yl)amino)pyrrolidin-1-yl)cyclohexyl)carbamoyl)cyclobutyl)amino)-3-oxopropoxy)ethoxy)ethyl)amino)-3-oxopropyl)-1-methyl-5-oxo-2-(pyridin-3-yl)pyrrolidine-3-carboxamide]	0.501
